Data taken from patent US9556236B1, “Compositions and methods for treating respiratory syncytial virus infection” (priority 2012, dated 2017).
“Also recorded” adds a separate entry of the source. Positions of bridges follow the written chain, without caps; N, C: chain ends. No end group written: not given here.

Experiments:
[1] = tested on: RG RSV; assay: HR2-D peptide series, prophylactic model of infection in Vero cells, GFP by flow cytometry; format: cell-based, respiratory syncytial virus; conditions: for GFP from positive control: prophylactic
Method: (§1) 25K Vero or A549 cells grown in 48-well plates and supplied with DMEM (no serum) were treated with a dose of peptides or micelle-peptides (5 μM peptide/well) for 30 min. previous to infection with RSV. Infection was carried out at a 0.1 MOI and allowed in the cell culture for 1 h. After removal of viral supernatant, the cells were treated with a second dose of peptides or peptide-loaded micelles containing 5 μM peptide/well in DMEM (5% FBS, 1% P/S). Infection was followed for a period of 48 h through microscopy and quantified through flow cytometry.
Infection experiments with the HR2-D series were carried out in Vero cells following a prophylactic model of infection using RG RSV (MOI=0.1) strain. At 48 h after infection, the cells were analyzed for GFP (positive RSV infection) by flow cytometry. […] Compared to HR2-D0, HR2-D1 is about 30% lower. For the activity of the inhibitor peptide HR2-D (˜20% GFP from positive control), as shown by the loss of activity by 1.5 fold for HR2-D2 vs. 2.5 fold for peptide HR2-D1. Moreover, the presence of the one free cysteine which is not forming a disulfide bond might result in destabilizing the whole structure. HR2-D1 and HR2-D2 have a free cysteine residue at position 9 and 32, respectively while HR2-S, HR2-D3 and HR2-D4 contain only one pair of cysteines.

[2] = tested on: RA2 RSV; assay: RSV titers by plaque assay in HEp-2 cells in presence of peptide, RA2 strain; format: cell-based, respiratory syncytial virus; conditions: 24-96 h after infection
Method: Growth and titration of the respiratory syncytial virus (RSV) strains A2, RG RSV (green-fluorescent tag), and rA2 were performed as previously described in the literature.^17,18 RSV was propagated in HEp-2 cells containing 0.1 PFU/cell in T-175 flasks supplied with 7 ml of 2% FBS, OptiMEM (virus yield 10^6-10^7 pfu/ml). Infection was allowed for 2 h. (at 37° C., 5% CO2) and then replaced with fresh media. The infection was allowed to progress until CPE (80-90%), typically happening after 3 days of incubation. Viral suspension was collected and combined with scrapped cells in to a vial and centrifuged at 3200 rpm for 10 min at 4° C. […] Last, viral supernatant was stored in cryovials and stored in liquid nitrogen tank.^18,19 Viral titers were measured using carboxymethylcellulose plaque assay on HEp-2 cells grown to 80-90% confluency at 5% FBS/DMEM in a 24-well plate (70K cells per well).^17,18,19 Virus particles were visible and quantitated after immunochemistry treatment of the cells with primary anti-RSV F mouse monoclonal [RSV3216 (B016)] […]
The effect of inhibitory peptides (HR2-A, HR2-B, HR2-C, HR2-D, HR2-E, HR2-S, HR2-D0, HR2-D1, HR2-D2, HR2-D3, HR2-D4) on RG RSV infection given by prophylactic method was visualized by inverted fluorescence microscopy (Olympus IX371) and quantitated by flow cytometry. […] Plaques were visualized and quantified (3-5 days pi). […]

[3] = tested on: RG RSV; assay: Prophylactic model of RSV infection in HEp2 cells, flow cytometry of GFP, RG RSV; format: cell-based, respiratory syncytial virus; conditions: two doses 5 μM peptide, 0.2 MOI, vs untreated positive control
Method: (§2) The effect of inhibitory peptides (HR2-A, HR2-B, HR2-C, HR2-D, HR2-E, HR2-S, HR2-D0, HR2-D1, HR2-D2, HR2-D3, HR2-D4) on RG RSV infection given by prophylactic method was visualized by inverted fluorescence microscopy (Olympus IX371) and quantitated by flow cytometry. For plaque assays, 50K HEp2 cells/well were seeded in 24-well plates and infected with RG RSV (0.1-1 MOI) in the presence of peptides for 1 h. The viral supernatant was removed and a second dose of peptides in methylcellulose/5% FBS was overlaid onto the cells. Plaques were visualized and quantified (3-5 days pi). Cellular uptake was characterized using confocal microscopy and flow cytometry. For confocal imaging, 50K cells (Vero, A549) were placed on a […] and grown overnight before treatment with MPs (5 μM peptide conc./dish) and incubated for 1 h at 37° C. […] Uptake was quantified by flow cytometry (BD FacsAria analyzer/sorter). […] Final cell pellet was suspended in 400 μl of 1×PBS and analyzed for green and/or red content.
(§3) The anti-RSV activity of peptides HR2-S, HR2-E, HR2-A, HR2-B, HR2-C, and HR2-D was tested in vitro following a prophylactic model of RSV infection in HEp2 cells described in the experimental section above. RG and RA2 RSV strains were used to quantify infection by flow and RA2 and A2 strains were used to quantitate the viral titers by immunochemistry. […]

[4] = tested on: A2 RSV; assay: RSV titers by plaque assay in HEp-2 cells in presence of peptide, A2 strain; format: cell-based, respiratory syncytial virus; conditions: for inhibition of A2 infection by viral titers: 24-96 h after infection
Method: Growth and titration of the respiratory syncytial virus (RSV) strains A2, RG RSV (green-fluorescent tag), and rA2 were performed as previously described in the literature.^17,18 RSV was propagated in HEp-2 cells containing 0.1 PFU/cell in T-175 flasks supplied with 7 ml of 2% FBS, OptiMEM (virus yield 10^6-10^7 pfu/ml). Infection was allowed for 2 h. (at 37° C., 5% CO2) and then replaced with fresh media. The infection was allowed to progress until CPE (80-90%), typically happening after 3 days of incubation. Viral suspension was collected and combined with scrapped cells in to a vial and centrifuged at 3200 rpm for 10 min at 4° C. The culture supernatant was collected and mixed with 0.1 volumes of sterile magnesium sulfate (1M). Last, viral supernatant was stored in cryovials and stored in liquid nitrogen tank.^18,19 Viral titers were measured using carboxymethylcellulose plaque assay on HEp-2 cells grown to 80-90% confluency at 5% FBS/DMEM in a 24-well plate (70K cells per well).^17,18,19 Virus particles were visible and quantitated after immunochemistry treatment of the cells with primary anti-RSV F mouse monoclonal [RSV3216 (B016)] (1:1000 dilution) and secondary antibody against primary with HRP conjugate.
The effect of inhibitory peptides (HR2-A, HR2-B, HR2-C, HR2-D, HR2-E, HR2-S, HR2-D0, HR2-D1, HR2-D2, HR2-D3, HR2-D4) on RG RSV infection given by prophylactic method was visualized by inverted fluorescence microscopy (Olympus IX371) and quantitated by flow cytometry. For plaque assays, 50K HEp2 cells/well were seeded in 24-well plates and infected with RG RSV (0.1-1 MOI) in the presence of peptides for 1 h. The viral supernatant was removed and a second dose of peptides in methylcellulose/5% FBS was overlaid onto the cells. Plaques were visualized and quantified (3-5 days pi). Cellular uptake was characterized using confocal microscopy and flow cytometry. For confocal imaging, 50K cells (Vero, A549) were placed on a […] and grown overnight before treatment with MPs (5 μM peptide conc./dish) and incubated for 1 h at 37° C. Cells were placed in a live-cell environmental chamber at 37° C. with 5% CO2 and imaged using spinning-disk confocal microscopy (Olympus IX81 confocal microscope). Uptake was quantified by flow cytometry (BD FacsAria analyzer/sorter). Samples for flow cytometry were prepared using 50K cells/well seeded in 24-well plates and grown in DMEM plus 10% FBS and incubated with peptides at a concentration of 5 μM peptide/well for 30 min at 37° C. […] Final cell pellet was suspended in 400 μl of 1×PBS and analyzed for green and/or red content.
Following the same methodology as for flow, two doses of peptides were used, and virus inoculation was 0.2 MOI. Titers were quantified 24 to 96 h after infection (pi).

[5] = tested on: RSV RA2; assay: Prophylactic model of RSV infection in HEp2 cells, flow cytometry with FITC-labeled anti-RSV staining, RA2 RSV; format: cell-based, respiratory syncytial virus; conditions: two doses 5 μM peptide, 0.2 MOI
Method: as §2, §3

[6] = tested on: RG RSV; assay: Free peptide and Cy5-labeled MPs, prophylactic model in Vero cells at low and high MOI, flow cytometry; format: cell-based, respiratory syncytial virus
Method: as §1
The effect of inhibitory peptides (HR2-A, HR2-B, HR2-C, HR2-D, HR2-E, HR2-S, HR2-D0, HR2-D1, HR2-D2, HR2-D3, HR2-D4) on RG RSV infection given by prophylactic method was visualized by inverted fluorescence microscopy (Olympus IX371) and quantitated by flow cytometry. […] Plaques were visualized and quantified (3-5 days pi). […] Uptake was quantified by flow cytometry (BD FacsAria analyzer/sorter). […] Final cell pellet was suspended in 400 μl of 1×PBS and analyzed for green and/or red content.
The hydrodynamic diameter of micelles with surface-conjugated peptides (MPs) was measured and compared to MPs with peptides also in the core (FMPs) (FIG. 6A). […] Subsequently experiments involved using Cy5 labeled peptides conjugated to the micelles and quantifying its activity against RG RSV infection by flow cytometry. […]

[7] = Hydrodynamic diameter by dynamic light scattering; format: physicochemical; conditions: DLS, in water
Method: The hydrodynamic radius of functionalized micelles (FMDs), micelle-peptide complexes (MPs), FMP, Cy5-amine-coated micelles and Cy5-HR2-D in water was measured using dynamic light scattering and zeta potential (DLS, Microtrac). Aliquots for DLS were prepared by diluting the stock samples 1:5, passing them through a 0.2 μm syringe-filter and sonicating for 10 min to disrupt aggregation.

[8] = tested on: RG RSV; assay: Therapeutic antiviral activity of FMDs in A549 cells infected with RG RSV; format: cell-based, respiratory syncytial virus; conditions: administered 24 h pi, RG RSV low MOI
Method: 25K A549 cells grown in 48-well plates and supplied with DMEM (no serum) were infected with RSV at a 0.1 MOI for 1 h. After washing the viral supernatant, cells were incubated in DMEM (5% FBS, 1% P/S) allowing progression of infection for different time periods (4 and 24 h), however, only 24 h is shown here. At these two time points, cells were treated with a dose of peptides or micelle-peptides containing 5 μM peptide/well. Infection was followed for a period of 48 h through microscopy and quantified through Image J statistical analysis software.
For testing the efficiency of FMDs, cytotoxicity was measured in A549 cells at different HR2-D peptide concentrations using FM2D and FM3D, respectively (FIG. 10A). EM2 and EM3 represent empty micelle control. A549 cells were infected according to therapeutic conditions, and FMD (6 μM FM2D, 5 μM FM3D) were administered 24 h pi. The images were visualized 48 h pi (FIG. 10B) and the inhibitory efficiency quantified using flow cytometry (FIGS. 10C and 10D). […] FM3D had good inhibitory activity by suppressing the expression of GFP by 65% as compared to the control.

[9] = tested on: rgRSV; assay: In vivo model of rgRSV infection and intranasal prophylactic treatment; parameters: species or system BALB/c mice; conditions: intranasal 50 μL of 125 μM 1 h before rgRSV 1×10^6 pfu, 24 h post infection, vs empty micelle control
Method: Ten week old BALB/c mice (n=4 per group) were anesthetized and treated intranasally with the indicated HR2D peptide (125 μM in 1.2% DMSO) or packaged in filled micelles or with chitosan nanoparticles and empty micelles control. One hour post reatment, three groups of mice were inoculated with a single dose of rgRSV at 1×10^6 pfu/mouse. Mice were sacrificed at 24 hours post infection and the noses harvested, sectioned, stained with DAPI and imaged for GFP using an Olympus fluorescent microscope.
To determine if the in vitro anti-RSV activity of HR2D translated to an in vivo context, in vivo testing was performed on mice. HR2D peptide itself, HR2 peptide with filled micelles, empty micelles as control, and HR2D peptide chitosan nanocomplexes were each administered by nasal drop (50 μL of 125 μM solution in 1.2% DMSO) to ten week old BALB/c mice followed by intranasal inoculation with a single dose of rgRSV (1×10^6 pfu) one hour later. Mice were sacrificed 24 hours after infection, and the noses harvested, sectioned, stained with DAPI, and subjected to fluorescence imaging. […] Thus, we find that pretreatment of rgRSV-infected mice with intranasal HR2D peptide markedly decreases nasal infection.

[10] = RG RSV MOI=0.1, 48 h after infection

Sequence: DACISQVNECINQSLAFIRKSDELLCNT (not fully specified (bridges); cysteine pairing not given here) [HR2-D2, ID NO.: 10]
- loss of activity relative to HR2-D ([1]; RG RSV MOI=0.1, 48 h): 1.5 fold

Sequence: DACISQVNEKINQSLAFIRKSDELLCNT (disulfide 3-26 (inferred)) [HR2-D3, ID NO.: 11]
- activity less compared to HR2-S ([1]; RG RSV MOI=0.1, 48 h): 3 fold

Sequence: DASISQVNEKINQSLAFIRKSDELLHNT (Chemically synthesized anti-RSV peptide) [HR2-D0, ID NO.: 8, control peptide with no cysteine]
- inhibitory activity against RSV infection [1, 10]: did not show any inhibitory activity; also recorded: lack of activity

Sequence: DASISQVNECINQSLAFICKSDELLHNT (disulfide 10-19 (inferred)) [HR2-D4, ID NO.: 12]
- activity less compared to HR2-S ([1]; RG RSV MOI=0.1, 48 h): 2 fold

Sequence: FDACISQVNECINQSLAFIRKSDELLHNVNAGKST (disulfide 4-11 (inferred)) [HR2-S, ID NO.: 2, one disulfide]
- inhibition of RA2 infection by viral titers [2]: did inhibit RA2 infection
- GFP from positive control [1, 10]: ~38%
- inhibition of RG RSV infection (GFP expression) [3]: less GFP expression
- inhibition of A2 infection by viral titers [4]: did not block A2 infection effectively
- reduction in A2 viral titers ([4]; 24 h to 96 h pi, 0.2 MOI, 5 μM peptide): about 0.2 fold
- inhibition of RA2 RSV infection [5]: most effective inhibitor

Sequence: DACISQVNECINQSLAFICKSDELLCNT (disulfide (positions not given here)) [HR2-D, ID NO.: 7, two disulfides]
- GFP from positive control [1, 10]: ~20%
- inhibition of RG RSV infection (GFP expression) [3]: greatest inhibition of RG RSV infection
- inhibition of A2 infection by viral titers [4]: greater inhibitory activity
- decrease in A2 titers ([4]; 96 h pi, 0.2 MOI): 50,000 fold
- infection blocked compared to positive control ([6]; low MOI (0.1), prophylactic, 24 h pi): 85%
- neutralization (peptide release comparison with controls) ([6]; virus concentration not stated at this place): 70%
- hydrodynamic diameter [7]: 2 nm
- control of infection under therapeutic conditions [8]: did not control the infection significantly
- RSV infection (GFP-positive cells) in nose sections [9]: significantly decreased virus infected cells in the nose
- RSV infection (GFP-positive cells) in nose sections ([9]; listed as HR2D peptide): marked reduction in GFP-positive nasal tissue

Sequence: DACISQVNEKINQSLAFICKSDELLCNT (not fully specified (bridges); cysteine pairing not given here) [HR2-D1, ID NO.: 9]
- GFP lower compared to HR2-D0 ([1]; RG RSV MOI=0.1, 48 h): about 30%
- loss of activity relative to HR2-D ([1]; RG RSV MOI=0.1, 48 h): 2.5 fold
